Measured values: US5385842A, “Anthraquinones as inhibitors of sulfide production from sulfate-reducing bacteria” (E. I. Du Pont de Nemours and Company, priority 1993, dated 1995)
Counter-ions that a name gives are not always drawn.

Test system: Desulfovibrio desulfuricans G100A
Experiment: microbe, parasite or virus in culture
Assay type: cell-based
Conditions: Desulfovibrio desulfuricans, G100A, read-out: % Inhib. (inhibition of sulfide production)

Row | Compound | inhibition at 30 ppm | inhibition at 10 ppm | inhibition at 10 µg/mL
1 | Cc1ccc2c(c1[N+](=O)[O-])C(=O)c1ccccc1C2=O [2-Methyl-1-nitroanthraquinone] | 50% |  | 
2 | Cc1ccc2c(c1)C(=O)c1ccccc1C2=O [2-Methylanthraquinone] | 10.4% |  | 
3 | O=C1c2ccccc2C(=O)c2c(O)c(S(=O)(=O)O)c(Oc3ccc(S(=O)(=O)O)cc3)c(O)c21 [2-Phenoxy quinizarin-3,4'-disulfonic acid, di K salt] |  | 28.1% | 
4 | CCC(=O)Nc1ccc2c(c1)C(=O)c1ccccc1C2=O [2-Propionamidoanthraquinone] | 10.4% |  | 
5 | CC(C)(C)c1ccc2c(c1)C(=O)c1ccccc1C2=O [2-tert-butylanthraquinone] | 5.2% |  | 
6 | O=C(Nc1ccc(Nc2ccc(NC(=O)c3ccccc3)c3c2C(=O)c2ccccc2C3=O)c2c1C(=O)c1ccccc1C2=O)c1ccccc1 [4,4'-Dibenzamido-1,1'-dianthrimide, N,N'-[Iminobis(9,10-dihydro-9,10-dioxo-4,1-anthracenediyl)]bisbenzamide] | 5.2% |  | 
7 | O=C(Nc1cccc2c1C(=O)c1cccc(Nc3cccc4c3C(=O)c3cccc(NC(=O)c5ccccc5)c3C4=O)c1C2=O)c1ccccc1 [4,5'-Dibenzamido-1,1'-dianthrimide, N,N'-[Iminobis(9,10-dihydro-9,10-dioxo-5,1-anthracenediyl)]bisbenzamide] | 0% |  | 
8 | Nc1cccc2c1C(=O)c1cccc(Cl)c1C2=O [5-Chloro-1-aminoanthraquinone] |  | 57.1% | 
9 | O=C1c2cccc(S(=O)(=O)O)c2C(=O)c2cccc([N+](=O)[O-])c21 [5-Nitroanthraquinone-1-sulfonic acid, 9,10-Dihydro-5-nitro-9,10-dioxo-1-anthracenesulfonic acid] |  | 66% | 
10 | O=C1c2cc(Cl)c(Cl)cc2C(=O)c2c(O)ccc(O)c21 [6,7-Dichloro-1,4-dihydroxyanthraquinone] | 5.7% |  | 
11 | O=c1c2ccccc2c(=O)c2c1cc(Cl)c1[nH]c3c([nH]c12)c(Cl)cc1c(=O)c2ccccc2c(=O)c13 [7,16-Dichloroindanthrone, 7,16-Dichloro-6,15-dihydro-5,9,14,18-anthrazinetetrone] |  | 43.8% | 
12 | O=C1c2ccccc2C(=O)c2c(O)c(S(=O)(=O)O)cc(O)c21 [9,10-Dihydro-1,4-dihydroxy-9,10-dioxo-2-anthracenesulfonic acid] | 7.8% |  | 
13 | O=C(O)c1cc2c(cc1C(=O)O)C(=O)c1ccccc1C2=O [9,10-Dihydro-9,10-dioxo-2,3-anthracenedicarboxylic acid] | 10% |  | 
14 | O=C1c2ccc(S(=O)(=O)O)cc2C(=O)c2cc(S(=O)(=O)O)ccc21 [9,10-Dihydro-9,10-dioxo-2,7-anthracenedisulfonic acid, di Na salt] | 9.1% |  | 
15 | O=C1c2c(O)c(O)c(S(=O)(=O)O)c(O)c2C(=O)c2c(O)c(O)c(S(=O)(=O)O)c(O)c21 [Acid alizarin blue BB, 9,10-Dihydro-1,3,4,5,7,8-hexahydroxy-9,10-dioxo-2,6-anthracenedisulfonic acid] | 0% |  | 
16 | Nc1c(S(=O)(=O)O)cc(Nc2ccccc2)c2c1C(=O)c1ccccc1C2=O [Acid blue 25, 1-Amino-9,10-dihydro-9,10-dioxo-4-(phenylamino)-2-anthracenesulfonic acid, Na salt] |  | 26% | 
17 | CC(=O)Nc1ccc(Nc2cc(S(=O)(=O)O)c(N)c3c2C(=O)c2ccccc2C3=O)cc1 [Acid blue 40, 4-[[4-(Acetylamino)phenyl]amino]-1-amino-9,10-dihydro-9,10-dioxo-2-anthracenesulfonic acid, Na salt] |  | 12.5% | 
18 | CC(=O)N(C)c1ccc(Nc2cc(S(=O)(=O)O)c(N)c3c2C(=O)c2ccccc2C3=O)cc1 [Acid blue 41, 4-[[4-(Acetylmethylamino)phenyl]amino]-1-amino-9,10-dihydro-9,10-dioxo-2-anthracenesulfonic acid, Na salt] |  | 0% | 
19 | Nc1cc(S(=O)(=O)O)c(O)c2c1C(=O)c1c(O)c(S(=O)(=O)O)cc(N)c1C2=O [Acid blue 45, 4,8-Diamino-9,10-dihydro-1,5-dihydroxy-9,10-dioxo-2,6-anthracenedisulfonic acid, di Na salt] |  | 0% | 
20 | Cc1cc(C)c(S(=O)(=O)O)c(C)c1Nc1ccc(Nc2c(C)cc(C)c(S(=O)(=O)O)c2C)c2c1C(=O)c1ccccc1C2=O [Acid blue 80, 3,3'-[(9,10-Dihydro-9,10-dioxo-1,4-anthracenediyl)adiimino]bis[2,4,6-trimethylbenzenesulfonicacid], di Na salt] |  | 0% | 
21 | C=CS(=O)(=O)c1cccc(Nc2cc(S(=O)(=O)O)c(N)c3c2C(=O)c2ccccc2C3=O)c1 [Acid blue 215, 1-Amino-4-[[3-(ethenylsulfonyl)phenyl]-9,10-dihydro-9,10-dioxo]-2-anthracene sulfonic acid, monosodium salt] |  | 19.7% | 
22 | Cc1ccc(Nc2ccc(Nc3ccc(C)cc3S(=O)(=O)O)c3c2C(=O)c2ccccc2C3=O)c(S(=O)(=O)O)c1 [Acid green 25, 2,2'-[(9,10-Dihydro-9,10-dioxo-1,4-anthracenediyl)-diimino]bis[5-methylbenzenesulfonic acid],di Na salt] |  | 38.8% | 

Row | Compound | inhibition at 30 ppm | inhibition at 10 ppm | inhibition at 10 µg/mL
23 | CCCCc1ccc(Nc2ccc(Nc3ccc(CCCC)cc3S(=O)(=O)O)c3c2C(=O)c2ccccc2C3=O)c(S(=O)(=O)O)c1 [Acid green 27, 2,2'-[(9,10-Dihydro-9,10-dioxo-1,4-anthracenediyl)-diimino]bis[5-butylbenzenesulfonic acid]] |  | 16.5% | 
24 | Cc1ccc(Nc2ccc(Nc3ccc(C)cc3S(=O)(=O)O)c3c2C(=O)c2c(O)ccc(O)c2C3=O)c(S(=O)(=O)O)c1 [Acid green 41, 2,2'-[(9,10-Dihydro-5,8-dihydroxy-9,10-dioxo-1,4-anthracendiyl)diimino]bis[5-methylbenzenesulfonic acid], di Na salt] |  | 17.8% | 
25 | O=C(O)c1ccccc1Nc1cccc2c1C(=O)c1cccc(Nc3ccccc3C(=O)O)c1C2=O [Acridylic acid, 1,5-Bis(2-carboxyanilino)-9,10-anthracenedione] |  | 33.5% | 
26 | COc1cccc2c1C(=O)c1c(O)c3c(c(O)c1C2=O)C[C@@](O)(C(=O)CO)C[C@@H]3O[C@H]1C[C@H](N)[C@H](O)[C@H](C)O1 [Adriamycin hydrochloride, 10-[(3-Amino-2,3,6-trideoxy-alpha-L-lyxo-hexopyranosyl)oxy]-7,8,9,10-tetrahydro-6,8,11-trihydroxy-8-(hydroxyacetyl)-1-methoxy-5,12-naphthacenedione hydrochloride, reference compound] | 55.7% |  | 
27 | O=C1c2ccccc2C(=O)c2c(Nc3ccc(S(=O)(=O)O)cc3)c(Nc3ccc(S(=O)(=O)O)cc3)cc(O)c21 [Alizarin blue black B, 1,2-Bis[(4-sulfophenyl)amino]-4-hydroxy-anthraquinone] |  | 17.5% | 
28 | O=C(O)CN(CC(=O)O)Cc1cc2c(c(O)c1O)C(=O)c1ccccc1C2=O [Alizarin complexone dehydrate, (3,4-dihydroxy-2-anthraquinonyl)-methyliminodiacetic acid] | 14.3% |  | 
29 | O=C1c2c(O)ccc(O)c2C(=O)c2c(O)c(O)c(O)c(O)c21 [Alizarin cyanin, 1,2,3,4,5,8-Hexahydroxyanthraquinone] |  | 40.6% | 
30 | O=C1c2ccccc2C(=O)c2c1cc(S(=O)(=O)O)c(O)c2O [Alizarin red S monohydrate, 3,4-Dihydroxy-9,10-dioxo-2-anthracenesulfonic acid] |  | 0% | 
31 | O=C1c2ccc(O)cc2C(=O)c2c1cc(S(=O)(=O)O)c(O)c2O [Alizarin rubinol, 9,10-Dihydro-3,4,6-trihydroxy-9,10-dioxo-2-anthracenesulfonic acid] | 0% |  | 
32 | Cc1ccc(Nc2cccc3c2C(=O)c2cccc(Nc4ccc(C)cc4S(=O)(=O)O)c2C3=O)c(S(=O)(=O)O)c1 [Alizarin violet 3R, 2,2'-[(9,10-Dihydro-9,10-dioxo-1,5-anthracenediyl)-diimino]bis[5-methylbenzenesulfonic acid], di Na salt] |  | 30.9% | 
33 | O=C1c2ccc(O)c(O)c2C(=O)c2cccc(S(=O)(=O)O)c21 [Alizarin-5-sulfonic acid, 9,10-Dihydro-5,6-dihydroxy-9,10-dioxo-1-anthracenesulfonic acid] | 7.1% |  | 
34 | CNc1ccc(Nc2ccc(C)cc2S(=O)(=O)O)c2c1C(=O)c1ccccc1C2=O [Alizarine astrol B-CF, 2-[[9,10-Dihydro-4-(methylamino)-9,10-dioxo-1-anthracenyl]amino]-5-methyl-benzenesulfonic acid, monosodium salt] |  | 2.6% | 
35 | O=C1c2cccc(O)c2C(=O)c2c(O)cc(CO)cc21 [Aloe-emodin, 1,8-Dihydroxy-3-(hydroxymethyl)-anthraquinone] |  | 43.8% | 
36 | O=C1c2ccccc2C(=O)c2c1cc(O)c(O)c2O [Anthragallol, 1,2,3-trihydroxyanthraquinone] | 2.6% |  | 
37 | O=C1c2ccc(O)cc2C(=O)c2c1ccc(O)c2O [Anthrapurpurin, 1,2,7-Trihydroxyanthraquinone] |  | 37.5% | 
38 | O=C1c2cccc(S(=O)(=O)O)c2C(=O)c2cccc(S(=O)(=O)O)c21 [Anthraquinone-1,5-disulfonic acid di Na salt hydrate] |  | 17.5% | 
39 | O=C1c2ccc(S(=O)(=O)O)cc2C(=O)c2ccc(S(=O)(=O)O)cc21 [Anthraquinone-2,6-disulfonic acid di Na salt] |  | 9.8% | 
40 | O=C(O)c1ccc2c(c1)C(=O)c1ccccc1C2=O [Anthraquinone-2-carboxylic acid] |  |  | 22.6%
41 | O=C1c2ccccc2C(=O)c2cc(S(=O)(=O)O)ccc21 [Anthraquinone-2-sulfonic acid sodium salt monohydrate] |  | 17% | 
42 | O=C1c2ccccc2C(=O)c2ccccc21 [Anthraquinone] |  | 37.5% | 
43 | Oc1ccc2c(O)c3ccccc3cc2c1O [Anthrarobin, 1,2,10-Anthracenetriol] |  | 44.4% | 
44 | CN(C)Cc1ccc(Nc2ccc(N)c3c2C(=O)c2ccccc2C3=O)cc1 [Basic Blue 47, 1-Amino-4-[4-[(dimethylamino)methyl]phenyl]amino-9,10-anthracenedione] |  | 37.2% | 
